# Measured values from patent US20160030416A1, “METHODS OF TREATING B2-BRADYKININ RECEPTOR MEDIATED ANGIOEDEMA” (SHIRE HUMAN GENETIC THERAPIES, INC., priority 2013, published 2016).
# “And” between values parts separate entries of the source, which are not always exact repeats. Identical values can stand only once. Like-named read-outs stand apart in the source and are kept apart here.
# Columns and labels:
# [1] = Bidirectional permeability in Caco-2 cells; assay type: in vitro ADME, human; conditions: human, 5 μM, 120 minutes
# Description: (§1) To determine bidirectional permeability, CFMQ was examined in an in vitro incubation assay with […] (Caco-2 cell). CFMQ at 5 μM was dosed to the cell monolayers on the apical side (A-to-B) or basolateral side (B-to-A) and incubated at 37° C. with 5% CO2 for 120 minutes. Permeability of Lucifer Yellow (500 μM) was measured to ensure no damage was inflicted to the cell monolayers during the CFMQ flux period. All samples were assayed by LC-MS/MS using electrospray ionization.
# Caco-2 cell = assay: Bidirectional permeability in Caco-2 cells; assay type: in vitro ADME, human
# Description: as §1
# NK3 (h) = molecular target: T1, NK3 (h) (Homo sapiens, UniProt P29371); assay: Off-target receptor binding: NK3
# T1 construct: expressed in transfected cells; host or cells: CHO or HEK 293 (not assigned per receptor)
# T1 sequence (P29371 1-465): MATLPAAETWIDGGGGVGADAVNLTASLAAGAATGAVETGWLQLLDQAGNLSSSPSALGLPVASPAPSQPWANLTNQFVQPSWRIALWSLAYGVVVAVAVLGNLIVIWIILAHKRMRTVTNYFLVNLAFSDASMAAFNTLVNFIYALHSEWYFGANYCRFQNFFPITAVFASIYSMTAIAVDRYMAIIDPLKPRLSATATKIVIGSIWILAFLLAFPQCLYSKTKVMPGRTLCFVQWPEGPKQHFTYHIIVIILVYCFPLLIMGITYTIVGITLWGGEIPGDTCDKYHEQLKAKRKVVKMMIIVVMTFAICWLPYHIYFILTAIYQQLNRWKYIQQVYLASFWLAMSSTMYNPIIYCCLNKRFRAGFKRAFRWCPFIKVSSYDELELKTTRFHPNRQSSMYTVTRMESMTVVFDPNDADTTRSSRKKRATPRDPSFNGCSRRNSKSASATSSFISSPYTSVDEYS
# Description: (§2) To determine the affinity to the B2-bradykinin receptor, CFMQ was compared to a diverse set of receptors and reference agents in an in vitro assay using cells from rat heart, urinary bladder, cerebral cortex, as well as human recombinant cells (CHO and HEK 293) and other cell lines. Each assay included a ligand at a specific concentration (concentration ranging from 0.007-10 nM), in addition to a non-specific ligand (concentration ranging from […]) for incubation periods ranging from 15 minutes to 6 hours at 4°-37° C. The specific binding to the receptors was defined as the difference between the total binding and the nonspecific binding, determined in the presence of an excess of unlabeled CFMQ. The concentration causing a half-maximal inhibition of control specific binding (IC50 values) and inhibition constants (Ki) were determined, and each reference compound was within the accepted limits of the historic average (±0.5 log units).
# plasma extravasation = assay: Plasma extravasation (Evans blue in bladder), oral, C1-INH knockout mice; assay type: in vivo, C1-INH-KO mice
# [2] = Pharmacokinetics, single oral gavage, CD-1 mice; assay type: in vivo, female CD-1 mice; conditions: female, CD-1, mouse, plasma
# Description: CFMQ (HGT3711) was administered to fasted female CD-1 mice (n=18/dose group) by a single oral gavage at 100, 250 and 450 mg/kg in a dose volume of 5 mL/kg in a spray-dried dispersion formulation (discussed below). Blood samples were taken via cardiocentesis or abdominal vein prior to administration and at 10, 30, 60 (1 hr), 120 (2 hr), 240 (4 hr) and 480 (8 hr) minutes post dose. Plasma concentrations of CFMQ (HGT3711) were determined by LC-MS/MS (liquid chromatography mass spectrometry) and concentrations below the limit of quantitation (3 ng/mL) were assigned a value of zero for pharmacokinetic analysis. Nominal dosing concentrations were used in all calculations.
# [3] = Cross-over PK, IV and PO, cynomolgus monkeys; assay type: in vivo, male cynomolgus monkey
# Description: A cross-over PK (pharmacokinetic) analysis was conducted in cynomolgus monkey. Two fasted male monkeys in each dose group received a single 1.0 mg/kg dose of CFMQ (HGT3711) by either IV (intravenous) or PO (oral) administration, with a 7-day washout period between each dose. The dose concentration was 1.0 mg/mL with a dose volume of 1.0 mL/kg. Blood samples were collected via the femoral vein at 0.083 (5 min), 0.25 (15 min), 0.5 (30 min), 1, 1.5, 2, 3, 4, 6, 8, 18 and 24 hours post-dose. Plasma concentrations of CFMQ (HGT3711) were determined by LC-MS/MS and concentrations below the limit of quantitation (2.5 ng/mL) were assigned a value of zero for pharmacokinetic analysis. Following oral administration of CFMQ (1 mg/kg), the concentration of CFMQ in plasma was below the limit of quantitation (BLQ=<2.5 ng/ml) at each sampling time point, preventing assessment of pharmacokinetic properties of CFMQ after oral administration in monkeys in this study. Table 11 summarizes the average PK properties for IV and PO dosed groups.
# diverse set of receptors = assay: Receptor binding and selectivity panel
# Description: as §2
# [4] = 100 mg/kg, read-out: Average Concentration of HGT3711
# [5] = 250 mg/kg, read-out: Average Concentration of HGT3711
# [6] = 450 mg/kg, read-out: Average Concentration of HGT3711
# [7] = 450 mg/kg, n = 2, read-out: Average Concentration of HGT3711
# [8] = male, cynomolgus monkey, plasma, IV (1 mg/kg), Mean
structure (smiles),measurement,setting,value
"Cc1cc(Cl)c(COc2cccc3c(-n4cc(F)cn4)cc(C)nc23)c(Cn2cccc(C#N)c2=O)n1 [CFMQ, 1-((4-Chloro-3-(((4-(4-fluoro-1H-pyrazol-1-yl)-2-methylquinolin-8-yl)oxy)methyl)-6-methylpyridin-2-yl)methyl)-2-oxo-1,2-dihydropyridine-3-carbonitrile]","Papp A→B at 120 min, 5 μM","[1]; apical to basolateral, read-out: permeability coefficient A-to-B",34 ×10⁻⁶ cm/s
same,"Papp B→A at 120 min, 5 μM","[1]; basolateral to apical, read-out: permeability coefficient B-to-A",38 ×10⁻⁶ cm/s
same,efflux,Caco-2 cell,no significant efflux
same,permeability classification,Caco-2 cell,highly permeable
same,IC50,NK3 (h),1100 nM
same,Ki,NK3 (h),2700 nM
same,nH,NK3 (h),1.1
same,inhibition at 10 µM,NK3 (h); CFMQ at 10 μM,53%
same,efficacy compared with 0.4 mg/kg SC Firazyr,plasma extravasation; oral 3.0 mg/kg,nearly as effective
same,inhibition of EB accumulation in the bladder,plasma extravasation; oral 10 mg/kg,~100%
same,inhibition of EB accumulation in the bladder,plasma extravasation; oral 30 mg/kg,~100%
same,AUC(0-inf),[2]; 100 mg/kg,10500 ng·h/mL
same,AUC(0-t),[2]; 100 mg/kg,10500 ng·h/mL
same,Cmax,[2]; 100 mg/kg,5300 ng/mL
same,concentration at 10 min,[2]; [4],5300 ng/mL
same,concentration at 30 min,[2]; [4],4100 ng/mL
same,concentration at 60 min,[2]; [4],5170 ng/mL
same,concentration at 120 min,[2]; [4],2200 ng/mL
same,concentration at 240 min,[2]; [4],78 ng/mL
same,concentration at 480 min,[2]; [4],18 ng/mL
same,AUC(0-inf),[2]; 250 mg/kg,24500 ng·h/mL
same,AUC(0-t),[2]; 250 mg/kg,24400 ng·h/mL
same,Cmax,[2]; 250 mg/kg,13300 ng/mL
same,concentration at 10 min,[2]; [5],6250 ng/mL
same,concentration at 30 min,[2]; [5],13300 ng/mL
same,concentration at 60 min,[2]; [5],10400 ng/mL
same,concentration at 120 min,[2]; [5],4570 ng/mL
same,concentration at 240 min,[2]; [5],854 ng/mL
same,concentration at 480 min,[2]; [5],45 ng/mL
same,AUC(0-inf),[2]; 450 mg/kg,40900 ng·h/mL
same,AUC(0-t),[2]; 450 mg/kg,40800 ng·h/mL
same,Cmax,[2]; 450 mg/kg,15800 ng/mL
same,concentration at 10 min,[2]; [6],11600 ng/mL
same,concentration at 30 min,[2]; [6],14600 ng/mL
same,concentration at 60 min,[2]; [7],15800 ng/mL
same,concentration at 120 min,[2]; [7],6440 ng/mL
same,concentration at 240 min,[2]; [6],3370 ng/mL
same,concentration at 480 min,[2]; [6],88 ng/mL
same,Vz as fold of the total body water (0.69 L/kg),[3]; IV 1 mg/kg,4.32 fold
same,systemic clearance as % of monkey hepatic blood flow (2.62 L/hr/kg),[3]; IV 1 mg/kg,57.63%
same,ACU(0-∞),"[3]; IV (1 mg/kg), Mean",693.99 μg/L*hr
same,CLz,"[3]; IV (1 mg/kg), Mean, 1 mg/kg",25.2 ± 6.83 mL/min/kg and 25.2 mL/min/kg
same,t1/2z,"[3]; IV (1 mg/kg), Mean, 1 mg/kg",1.40 ± 0.24 h and 1.40 h
same,AUC(0-t),[3]; [8],679 ng·h/mL
same,Cmax,[3]; [8],410 ng/mL
same,Tmax,[3]; [8],0.23 h
same,MRT inf,"[3]; male, cynomolgus monkey, plasma, IV (1 mg/kg), Mean, read-out: MRT(0-∞)",1.77 h
same,Cmax,"[3]; male, cynomolgus, cynomolgus monkey, plasma, IV (1 mg/kg), Mean",410 ± 107 ng/mL
same,Vd,"[3]; male, cynomolgus, cynomolgus monkey, plasma, IV (1 mg/kg), Mean, read-out: Vz",2.98 ± 0.55 L/kg
same,concentration of CFMQ in plasma,"[3]; oral 1 mg/kg, at each sampling time point (below limit of quantitation)",< 2.5 ng/mL
same,oral bioavailability,"[3]; oral 1 mg/kg, monkey",no bioavailability
same,binding selectivity for B2-bradykinin receptor,diverse set of receptors,selective
